Data on four compounds can be found in ChEMBL document CHEMBL3046792, “Biologically active secondary metabolites of endophytic Pezicula species” (1995).

Holding throughout (assay type): functional
The test system of one experiment is Medicago sativa. The experiment is described as follows: Herbicidal activity against Medicago sativa (alfalfa) assessed as inhibition of seedlings growth after 5 days.
The test system of a further experiment is Lepidium sativum. In words: Herbicidal activity against Lepidium sativum assessed as inhibition of seedlings growth after 2 days.
Experiment [1] concerns [Chlorella] fusca. In words: Antimicrobial activity against 'Chlorella' fusca at 1 mg by agar diffusion test. The following applies: Scenedesmus fuscus; read-out: IZ. (In general: In agar diffusion tests the substance spreads into inoculated agar from a disc or well.)
The subject of experiment [2] is Mycotypha microspora. The experiment is described as follows: Antimicrobial activity against Mycotypha microspora at 1 mg by agar diffusion test. The following applies: read-out: IZ.
Experiment [3] has as its system Microbotryum violaceum. In words: Antimicrobial activity against Microbotryum violaceum at 1 mg by agar diffusion test. To be noted: read-out: IZ.
In experiment [4] the test system is Priestia megaterium. In words: Antimicrobial activity against Bacillus megaterium at 1 mg by agar diffusion test. To be noted: read-out: IZ.
The subject of experiment [5] is Escherichia coli. The experiment is described as follows: Antimicrobial activity against Escherichia coli at 1 mg by agar diffusion test. To be noted: read-out: IZ.
The test system of experiment [6] is [Chlorella] fusca. The experiment is described as follows: Antimicrobial activity against 'Chlorella' fusca at 0.9 mg by agar diffusion test. The following applies: Scenedesmus fuscus; read-out: IZ.
Experiment [7] deals with Aspergillus pseudoglaucus. The experiment is described as follows: Antimicrobial activity against Eurotium repens at 0.9 mg by agar diffusion test. To be noted: read-out: IZ.
Experiment [8] deals with Mycotypha microspora. In words: Antimicrobial activity against Mycotypha microspora at 0.9 mg by agar diffusion test. The following applies: read-out: IZ.
In experiment [9] the test system is Microbotryum violaceum. In words: Antimicrobial activity against Microbotryum violaceum at 0.9 mg by agar diffusion test. To be noted: read-out: IZ.
The subject of experiment [10] is Escherichia coli. The experiment is described as follows: Antimicrobial activity against Escherichia coli at 0.9 mg by agar diffusion test. To be noted: read-out: IZ.
For experiment [11], the system named is Priestia megaterium. The experiment is described as follows: Antimicrobial activity against Bacillus megaterium at 0.9 mg by agar diffusion test. The following applies: read-out: IZ.
The test system of experiment [12] is [Chlorella] fusca. In words: Antimicrobial activity against 'Chlorella' fusca at 1.2 mg by agar diffusion test. The following applies: Scenedesmus fuscus; read-out: IZ.
The subject of experiment [13] is Aspergillus pseudoglaucus. The experiment is described as follows: Antimicrobial activity against Eurotium repens at 1.2 mg by agar diffusion test. To be noted: read-out: IZ.
The subject of experiment [14] is Mycotypha microspora. The experiment is described as follows: Antimicrobial activity against Mycotypha microspora at 1.2 mg by agar diffusion test. To be noted: read-out: IZ.
The test system of experiment [15] is Microbotryum violaceum. In words: Antimicrobial activity against Microbotryum violaceum at 1.2 mg by agar diffusion test. To be noted: read-out: IZ.
Experiment [16] deals with Escherichia coli. The experiment is described as follows: Antimicrobial activity against Escherichia coli at 1.2 mg by agar diffusion test. The following applies: read-out: IZ.
The test system of experiment [17] is Priestia megaterium. The experiment is described as follows: Antimicrobial activity against Bacillus megaterium at 1.2 mg by agar diffusion test. The following applies: read-out: IZ.
The test system of experiment [18] is Aspergillus pseudoglaucus. In words: Antimicrobial activity against Eurotium repens at 1 mg by agar diffusion test. To be noted: read-out: IZ.

Turning to `C=C1C(=O)O[C@H]2C(=O)O[C@H](CC)[C@@H]12` [4-EPI-ETHIOSOLIDE], the “growth inhibition (GI)” value in the experiment on Medicago sativa and with Lepidium sativum was 100% throughout. In addition, the zone of inhibition at 1000 µg/disc in experiment [Chlorella] fusca [1] came to 3 mm; in the experiment on Mycotypha microspora [2] it was 6 mm; in the experiment with Microbotryum violaceum [3], 10 mm; in the experiment with Priestia megaterium [4], 5 mm; in the experiment with Escherichia coli [5], 5 mm.

In the case of `C[C@@H]1Cc2cccc(O)c2C(=O)O1` [(-)-(R)-MELLEIN], the “growth inhibition (GI)” value in the experiment with Medicago sativa and with Lepidium sativum was 100% throughout. For the same compound, the zone of inhibition at 900 µg/disc in experiment [Chlorella] fusca [6] turned out to be 14 mm; in experiment [7] it was 6 mm; in the experiment with Mycotypha microspora [8], 0 mm; in the experiment with Microbotryum violaceum [9], 8 mm; in the experiment with Escherichia coli [10] it was 2 mm; in the experiment on Priestia megaterium [11], 2 mm.

Consider `C/C=C(\Cl)C1=CC(=O)[C@@]23C[C@@H]2C(C)(C)O[C@@]3(O)C1=O` [(-)-MYCORRHIZIN A], for which the “growth inhibition (GI)” value with Medicago sativa and in the experiment with Lepidium sativum was 100% throughout. In addition, the zone of inhibition at 1200 µg/disc in experiment [Chlorella] fusca [12] was 3 mm; in experiment [13], 14 mm; with Mycotypha microspora [14], 10 mm; in the experiment on Microbotryum violaceum [15], 14 mm; in the experiment on Escherichia coli [16] it was 3 mm; in the experiment with Priestia megaterium [17], 8 mm.

Consider `C/C=C/C1=C(Cl)C(=O)[C@@H](Cl)[C@@]1(O)C(=O)OC` [(+)-CRYPTOSPORIPSIN], for which the “growth inhibition (GI)” value in the experiment with Medicago sativa and in the experiment on Lepidium sativum was 100% in each case. Moreover, the zone of inhibition at 1000 µg/disc in experiment [18] is 16 mm; in experiment [Chlorella] fusca [1] it was 0 mm; in the experiment on Mycotypha microspora [2], 17 mm; with Microbotryum violaceum [3] it was 15 mm; in the experiment on Priestia megaterium [4] it was 5 mm; in the experiment on Escherichia coli [5], 3 mm.
